ChEMBL document CHEMBL5215012, “Daphnepedunins A-F, Anti-HIV Macrocyclic Daphnane Orthoester Diterpenoids from Daphne pedunculata” (J Nat Prod, 2022)

Tests used:
[1] = test system: Human immunodeficiency virus 1; assay: Anti-HIV activity against HIV-1 NL4-3 Nanoluc-sec virus infected in human MT4 cells assessed as viral growth inhibition by measuring luciferase activity measured after 3 days post-infection by Nano-Glo luciferase assay; type: functional, organism-based; details: Human immunodeficiency virus 1, NL4-3, MT4, 72 h
MT4 = assay: Cytotoxicity against human MT4 cells assessed as reduction in cell viability by celltiter-glo luminescent cell viability assay; type: toxicity, cell-based

Row | Compound | IC50 [1] | CC50 (MT4)
1 | C=C(C)[C@]12C[C@@H](C)[C@]34OC5(CCCCCCC[C@@H](C)[C@@H]6[C@@H]3[C@]3(O[C@]6(C)OC3=O)[C@H](O)[C@@]3(CO)O[C@H]3[C@H]4[C@H]1O5)O2 | 0.229 µM | –
2 | C=C(C)[C@]12C[C@@H](COC(=O)c3ccccc3)[C@]34OC5(CCCCCCC[C@@H](C)[C@@H]6[C@@H]3[C@]3(O[C@]6(C)OC3=O)[C@H](O)[C@@]3(CO)O[C@H]3[C@H]4[C@H]1O5)O2 | 0.994 µM | 21.7 µM
3 | C=C(C)[C@]12C[C@@H](C)[C@@]34OC5(CCCCCCCC[C@H]6[C@H](C)C(=O)[C@@](O)([C@H](O)[C@@]7(CO)O[C@H]7[C@H]3[C@H]1O5)[C@@H]64)O2 | 0.0363 µM | > 6.5 µM
4 | C=C(C)[C@]12C[C@@H](COC(=O)c3ccccc3)[C@]34OC5(CCCCCCC[C@H](C)[C@@H]6[C@@H]3[C@]3(O[C@]6(C)OC3=O)[C@H](O)[C@@]3(CO)O[C@H]3[C@H]4[C@H]1O5)O2 | 0.93 µM | 18.8 µM
5 | C=C(C)[C@]12C[C@@H](COC(=O)c3ccccc3)[C@@]34OC5(O[C@@H]1[C@@H]3[C@@H]1O[C@]1(CO)[C@@H](O)[C@@]1(O)[C@H]4[C@H]([C@H](C)[C@@H]1OC(=O)c1ccccc1)[C@H](C)CCCCCC[C@H]5O)O2 | 0.00015 µM | > 6.5 µM
6 | C=C(C)[C@]12C[C@@H](COC(=O)c3ccccc3)[C@]34OC5(CCCCC[C@@H](OC(=O)c6ccccc6)C[C@@H](C)[C@@H]6[C@@H]3[C@]3(O[C@]6(C)OC3=O)[C@H](O)[C@@]3(CO)O[C@H]3[C@H]4[C@H]1O5)O2 | 0.423 µM | 5.3 µM
7 | C=C(C)[C@]12C[C@@H](C)[C@]34OC5(CCCCCCC[C@@H](C)[C@@H]6[C@@H]3[C@@](O)(C(=O)[C@@]6(C)O)[C@H](O)[C@@]3(CO)O[C@H]3[C@H]4[C@H]1O5)O2 | 0.0919 µM | > 6.5 µM
8 | C=C(C)[C@]12C[C@@H](COC(=O)c3ccccc3)[C@@]34OC5(CCCCCCC[C@@H](C)[C@H]6[C@H](C)C(=O)[C@@](O)([C@H](O)[C@@]7(CO)O[C@H]7[C@H]3[C@H]1O5)[C@@H]64)O2 | 0.071 µM | > 38.5 µM
9 | C=C(C)[C@]12C[C@@H](C)[C@@]34O[C@]5(CCCCCCC[C@H](C)[C@H]6[C@H](C)C(=O)[C@@](O)([C@H](O)[C@@]7(CO)O[C@H]7[C@H]3[C@H]1O5)[C@@H]64)O2 | 0.0817 µM | –
10 | C=C(C)[C@]12C[C@@H](C)[C@]34OC5(CCCCCCC[C@H](C)[C@@H]6[C@@H]3[C@@](O)(C(=O)[C@@]6(C)O)[C@H](O)[C@@]3(CO)O[C@H]3[C@H]4[C@H]1O5)O2 | 0.107 µM | 24.2 µM
11 | C=C(C)[C@]12C[C@@H](C)[C@@]34OC5(CCCCCCC[C@@H](C)[C@H]6[C@H](C)C(=O)[C@@](O)([C@H](O)[C@@]7(CO)O[C@H]7[C@H]3[C@H]1O5)[C@@H]64)O2 | 0.0385 µM | > 6.5 µM
12 | C=C(C)[C@]12C[C@@H](C)[C@]34OC5(CCCCCCC[C@H](C)[C@@H]6[C@@H]3[C@]3(O[C@]6(C)OC3=O)[C@H](O)[C@@]3(CO)O[C@H]3[C@H]4[C@H]1O5)O2 | 0.187 µM | > 38.5 µM
13 | C=C(C)[C@]12C[C@@H](COC(=O)c3ccccc3)[C@@]34OC5(CCCCC[C@@H](O)C[C@@H](C)[C@H]6[C@H](C)C(=O)[C@@](O)([C@H](O)[C@@]7(CO)O[C@H]7[C@H]3[C@H]1O5)[C@@H]64)O2 | 0.0692 µM | > 6.5 µM
